Experimental data reported in US6989435B2, “Compounds and methods to inhibit or augment an inflammatory response” (Cambridge University Technical Services Ltd., priority 1997, dated 2006).

Assays:
[1] = tested on: SDF-1α induced human monocyte migration; assay: Human monocyte migration, SDF-1α induced; format: cell-based; conditions: Table 4(c); 100 μM peptide; n.s. = no statistically significant inhibition
Protocol: Agents may also be screened in a chemotactic assay which employs human neutrophils, eosinophils, mast cells, basophils, platelets, lymphocytes or monocytes. For monocytes, 9 mls of fresh blood are transferred to a tube containing 1 ml of 3.8% sodium citrate, and left at room temperature for 15 minutes. Five mls of this anti-coagulated blood are carefully layered over 3.5 ml Polymorphprep® (Nycomed Pharma, Oslo), and centrifuged at 500 g for 35 minutes per the manufacturer's instructions. The top band at the sample/medium interface contains monocytes. The monocytes are carefully removed with a glass pipette, and reconstituted to the original volume (5 ml). The cells are washed with PBS plus 10% fetal calf serum, and centrifuged at 400 g for 10 minutes. The washing step is repeated three times before the cells are counted. Cells are resuspended at 1×10^7 cells/ml in RPMI-1640+10% fetal calf serum (FCS). The monocytes are cultured for two days at 37° C. in a humidified atmosphere of 5% CO2.
On day 2, the cells are counted, spun down, and reconstituted to 1×10^7 cells/ml in Gey's balanced salt solution+1 mg/ml bovine serum albumin (BSA). […]

[2] = tested on: TGFβ1 induced THP-1 migration; assay: Trans-well THP-1 migration assay, TGFβ1 as non-chemokine control chemoattractant; format: cell-based, human
Protocol: Any method suitable for counting cells can be used, for example, counting with a hemocytometer, incubation of the cells with MTT (see above), or FACS analysis. A negative control assay is also performed, using TGF-β or another non-chemokine chemoattractant (e.g., IL1β or TNFα). To assess whether the agent is cytotoxic, the same concentrations of agent are incubated with THP-1 cells. Agents which 1) are not cytotoxic at levels which inhibit migration, 2) are ineffective at inhibiting the negative control-induced migration, and 3) reduce or inhibit chemokine-induced THP-1 migration, are agents which fall within the scope of the invention.
For this assay, THP-1 cells were maintained at a density of 4×10^5 cells per ml in RPMI-1640 supplemented with 10% fetal calf serum+20 μM 2-mercaptoethanol. Chemotaxis was induced in a 96-well disposable chemotaxis chamber fitted with a […] polycarbonate filter (PVP free, ChemoTX, Neuroprobe Inc., Cabin John). Twenty-nine μl of chemoattractant (recombinant human chemokine; 50 ng/ml, i.e., 5.9 nM) or control (100 ng/ml TGFβ) was added to the lower compartment of each well. The framed filter was aligned with the holes in the corner of the filter frame and placed over the wells. Five×10^4 THP-1 cells in 25 μl of RPMI-1640 culture media were added to the upper compartment. Peptides were dissolved in Milli Q water and then serially diluted in culture medium. […]
After incubation, the cells were gently removed from the top of the filter with a pipette, 20 μl of 20 mM EDTA in PBS was added into each top well, and the mixture was incubated for 20 minutes at 4° C. […] A standard curve was prepared to accurately quantify the number of THP-1 cells that had migrated. […] Absorbance of converted dye was measured at a wavelength of 595 nm using an ELISA plate reader. The number of cells that had migrated in each well was determined by interpolation of the standard curve.
To investigate the receptor specificity of peptide 3 inhibition, the ED50 was determined for peptide 3(1-12)[MCP-1] […]

## EICADPKQKWVQ [Peptide 3]
[1]
  Extent of inhibition of human monocyte migration at 100 μM, SDF-1α: 108%
[2]; Table 4(b), 100 μM peptide, n.s. = no statistically significant inhibition
  Extent of inhibition of THP-1 migration at 100 μM, TGFβ1: n.s.
[2]; even at 100 μM
  inhibition of TGF-beta induced THP-1 migration: did not significantly inhibit
